Laboratory results reported in patent US20030120073A1, “Alpha-ketocarboxylic acid based inhibitors of phosphoryl tyrosine phosphatases” (priority 2001, published 2003).
Like-named read-outs stand apart in the source and are kept apart here.

Assays:
[1] = target: T1, Yersinia PTPase (Yersinia enterocolitica, UniProt P15273); assay: biochemical; format: biochemical
T1 construct: purchased Calbiochem

[2] = target: T2, PTP1B (Homo sapiens, UniProt P18031); conditions: absence of DMSO, acetate buffer pH 5.5; reference 1; read-out: Km of substrate, PTP1B (reported); cited from earlier work
T2 construct: purchased Calbiochem
T2 sequence (P18031 1-435): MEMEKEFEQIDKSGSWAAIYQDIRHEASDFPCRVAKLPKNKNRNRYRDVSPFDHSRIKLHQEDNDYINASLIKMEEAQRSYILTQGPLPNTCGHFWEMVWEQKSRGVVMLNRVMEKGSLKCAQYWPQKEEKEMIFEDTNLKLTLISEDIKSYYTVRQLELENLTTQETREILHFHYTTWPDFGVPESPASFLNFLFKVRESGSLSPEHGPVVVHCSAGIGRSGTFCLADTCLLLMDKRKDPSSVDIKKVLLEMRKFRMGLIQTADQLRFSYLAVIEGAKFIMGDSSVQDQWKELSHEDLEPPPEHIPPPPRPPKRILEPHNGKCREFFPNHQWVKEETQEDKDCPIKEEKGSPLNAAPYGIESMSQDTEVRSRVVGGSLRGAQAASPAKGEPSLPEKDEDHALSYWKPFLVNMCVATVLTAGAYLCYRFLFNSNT

[3] = target: T3, LAR PTPase (Homo sapiens, UniProt P10586); assay: LAR PTPase assay (p-NPP hydrolysis, UV at 420 nm); format: biochemical; conditions: 100 mM acetate pH 5.5, 10% DMSO; read-out: Km of substrate, LAR
T3 construct: purchased Calbiochem
T3 sequence (P10586 1301-1639 limits assumed): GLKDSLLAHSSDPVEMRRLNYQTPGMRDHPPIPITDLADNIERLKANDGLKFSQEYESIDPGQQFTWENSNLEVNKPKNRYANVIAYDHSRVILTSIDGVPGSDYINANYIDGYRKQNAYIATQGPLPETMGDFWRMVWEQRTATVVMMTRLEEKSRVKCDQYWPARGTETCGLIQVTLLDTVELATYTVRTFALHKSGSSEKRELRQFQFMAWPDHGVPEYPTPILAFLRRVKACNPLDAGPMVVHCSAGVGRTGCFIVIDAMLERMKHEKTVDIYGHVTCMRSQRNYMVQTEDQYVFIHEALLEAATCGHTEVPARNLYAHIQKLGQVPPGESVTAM

[4] = target: T2, PTP1B; assay: PTP1B assay (p-NPP hydrolysis, UV at 420 nm); format: biochemical; conditions: 100 mM acetate pH 5.5, 10% DMSO; read-out: Km of substrate, PTP1B
Procedure: PTP1B Assay: PTP1B (purchased from Calbiochem) was assayed usingp-NPP as the substrate and the reaction progress was monitored by UV spectroscopy. Initial rates were determined by monitoring the hydrolysis of p-NPP at 420 nm, from 10 to 120 s after mixing. Assay solutions contained 1.2 mM substrate, 1 mM EDTA, 100 mM NaCl, and 100 mM acetate at pH 5.5, and 10% DMSO. IC50 values were calculated using a Dixon analysis. Data analysis was performed with the commercial graphing package Grafit (Erithacus Software Ltd.).

T1 sequence (P15273 whole entry): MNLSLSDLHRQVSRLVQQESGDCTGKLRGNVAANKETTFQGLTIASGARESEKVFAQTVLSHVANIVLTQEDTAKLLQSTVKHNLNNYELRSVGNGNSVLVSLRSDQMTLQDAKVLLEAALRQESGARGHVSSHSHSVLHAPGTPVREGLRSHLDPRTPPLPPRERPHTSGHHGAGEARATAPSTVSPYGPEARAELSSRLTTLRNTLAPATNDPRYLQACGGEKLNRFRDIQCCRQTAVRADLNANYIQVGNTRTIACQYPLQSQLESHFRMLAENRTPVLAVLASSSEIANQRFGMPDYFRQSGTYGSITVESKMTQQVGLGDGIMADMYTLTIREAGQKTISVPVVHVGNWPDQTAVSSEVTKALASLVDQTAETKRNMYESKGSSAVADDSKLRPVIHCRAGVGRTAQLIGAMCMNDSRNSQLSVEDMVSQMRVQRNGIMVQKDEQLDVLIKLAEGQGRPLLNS

With `O=C(O)C(=O)c1ccccc1` [Compound 1] the IC50 [1] was 2700 µM.

For `O=C(O)C(=O)c1c[nH]c2ccccc12` [Compound 8], the IC50 [1] was 390 µM.

For `COc1ccc(C(=O)C(=O)O)cc1` [Compound 10], the IC50 [1] was 150 µM.

With `O=C(O)C(=O)c1ccco1` [Compound 11] the Ki [1] was 79 µM.

In the case of `O=C(O)C(=O)c1ccc(O)cc1` [Compound 27], the IC50 [1] is reported as 200 ± 20 µM.

For `O=[N+]([O-])c1ccc(OP(=O)(O)O)cc1` [p-NPP], the Km ([1]; pH 5.5, read-out: Km of substrate, Yersinia PTPase) is given as 2.5 mM, the Km [2] is given as 750 µM and the Km [3] is given as 2.1 mM. For the same compound, the Km [4] was 620 µM.
